Where two headings read alike, the source gives them in different places.
System: HuNoV GI.1 replicon
Experiment: HuNoV GI replicon assay (HGT-NV cells, qRT-PCR)
Assay type: cell-based, human norovirus GI.1
Procedure: Given that in this system the gene encoding for the major capsid protein is replaced by a neomycin resistance gene, no new virus particles will be produced but the non-structural proteins are expressed and the replication of the genomic RNA can be studied.
Cells and virus: MNV (virus strain MNV-1.CW1) was propagated in RAW 264.7 cells grown in DMEM (Life Technologies, Gent, Belgium) supplemented with 10% or 2% FBS, 2 mM L-glutamine, 20 mM HEPES, 0.075 g/L sodium bicarbonate, 1 mM sodium pyruvate, 100 U penicillin/mL and 100 µg/mL streptomycin at 37 °C in a humidified atmosphere of 5% CO2. The human norovirus GI.1 replicon harboring gastric tumor-1 cell line (HGT-NV) (kindly provided by Dr. Ian Goodfellow, University of Cambridge) was maintained in DMEM supplemented with 10% FBS, 2mM L-glutamine, 0.075 g/L sodium bicarbonate and 1.0 mg/ml of Geneticin (G418; Life Technologies), at 37 °C in a humidified atmosphere of 5% CO2[34].
Antiviral assay with the HGT-NV replicon: The inhibitory effect of Compounds on human norovirus replication was assessed by quantification of the levels of HuNoV GI replicon RNA and of the reference (housekeeping) gene β-actin mRNA [by quantitative reverse transcription polymerase chain reaction (qRT-PCR)]. To this end, HGT cells (2000 cells/well) were seeded in 96-well plates, in complete DMEM without the selection marker G418. Following an incubation period of 24 h, a serial dilution of rupintrivir was added to the cultures. After 72 h of incubation, cell monolayers were washed with phosphate-buffered saline (PBS) and collected for quantification of RNA load by qRT-PCR. Intracellular RNA was extracted from cells using the cell-to-cDNA lysis buffer (Ambion, Life Technologies). For detection of HuNoV GI replicon RNA, forward (5′-CCG GCT ACC TGC CCA TTC-3′), reverse (5′-CCAGATCATCCTGATCGACAAG-3′) primers and probe (5′-FAM-ACATCGCATCGAGCGAGCACGTAC-TAMRA-3′) for the neomycin gene were used. For detection of β-actin mRNA, forward (5′-GGCATCCACGAAACTACCTT-3′), reverse (5′-AGCACTGTGTTGGCGTACAG-3′) primers and probe (5′-HEX-ATCATGAAGTGTGACGTGGACATCCG-BHQ1–3′) were used. One-step qRT-PCR was performed in a 20 µL reaction mixture containing 10 µl 2X iTaq Universal SYBR® Green one step reaction mix (Bio-rad, California, USA), 5.17 µl RNAse free water, 0.5 µl of iScript reverse transcriptase (Bio-rad, California, USA), 4 µl of the template RNA and either 300 nM of HuNoV GI replicon primers and probe, 300 nM of β-actin primers and 200 nM of probe. Cycling conditions were: reverse transcription at 50 °C for 10 min, initial denaturation at 95 °C for 3 min, followed by 40 cycles of denaturation at 95 °C for 15 s, annealing and extension at 60 °C for 30 seconds (Roche Lightcycler®96, Roche Diagnostics, Belgium). To determine the relative expression levels of HuNoV GI replicon RNA, β-actin was used as a normalizer and ratios were calculated using the Pfaffl method. The Expression Ratio (HuNoV GI Replicon/β-actin) was calculated as: Expression Ratio = (E HuNoV)^ΔCT, HuNoV (CC – TC)/(Eβ-actin)^ΔCT, β-actin (CC – TC), where E HuNoV and Eβ-actin represent the amplification efficiency (E = 10^–1/slope) for the HuNoV GI replicon and β-actin qRT-PCR reactions, respectively. ΔCT, HuNoV (CC – TC) is the Ct of untreated control cells (CC) minus the Ct of cells treated with a compound concentration (TC) obtained with HuNoV GI replicon primers and probe. ΔCT, β-actin (CC – TC) is the Ct of untreated control cells (CC) minus the Ct of cells treated with a compound concentration (TC) obtained with β-actin primers and probe. Efficiency values (E HuNoV and Eβ-actin) were determined for each qRT-PCR reaction.

[1] = HuNoV GI replicon in HGT-1 cells, 72 h, replicon RNA by qRT-PCR
[2] = Norwalk virus, HGT-1, 72 h, read-out: EC50 values (column head printed 'M'), HuNoV GI replicon in HGT-1 cells, replicon RNA by qRT-PCR

SMILES | EC50 values (column head printed 'M') [1] | EC50 [2] | EC50 (read-out: EC50 values (column head printed 'M'), HuNoV GI replicon in HGT-1 cells, 72 h, replicon RNA by qRT-PCR)
O=C(NC(=S)Nc1ccc(N2CCN(C(=O)c3cccs3)CC2)cc1)c1sc2ccccc2c1Cl [Compound 48, 3-Chloro-N-((4-(4-(thiophene-2-carbonyl)piperazin-1-yl)phenyl)carbamothioyl)benzo[b]thiophene-2-carboxamide, reference compound] | do not display any significant antiviral activity | > 100 µM | 
Cc1ccc(C(=O)NC(=S)Nc2ccc(N3CCN(C(=O)c4cccs4)CC3)cc2)cc1 [Compound 52, 4-Methyl-N-((4-(4-(thiophene-2-carbonyl)piperazin-1-yl)phenyl)carbamothioyl)benzamide] | low micromolar range | 6 µM | 6.1 ± 3.9 µM
O=C(NC(=S)Nc1ccc(N2CCN(C(=O)c3nccs3)CC2)cc1)c1sc2ccccc2c1Cl [Compound 56, 3-Chloro-N-((4-(4-(thiazole-2-carbonyl)piperazin-1-yl)phenyl)carbamothioyl)benzo[b]thiophene-2-carboxamide] | do not display any significant antiviral activity | > 100 µM | 
